Measured values reported in doi:10.1101/2022.02.04.479134, “A Suite of TMPRSS2 Assays for Screening Drug Repurposing Candidates as Potential Treatments of COVID-19” (bioRxiv, 2022).
Entries after “also recorded” stand apart in the source; their conditions may differ. Counter-ions that a name gives are not always drawn. Like-named read-outs stand apart in the source and are kept apart here.

What was measured:
[1] = tested on: SARS-CoV-2 spike pseudotyped particles (Delta variant B.1.617.2) entry into Calu-3 cells; experiment: microbe, parasite or virus in culture; type: cell-based; conditions: for inhibition of pseudotyped particle entry: variant not stated; for Emax: Severe acute respiratory syndrome coronavirus 2, Calu-3, read-out: SARS-CoV-2 PP (Delta) Max Response; for AC50: 48 h, N/D = Not Detected, read-out: SARS-CoV-2 PP (Delta) AC50; for SARS-CoV-2 PP (Delta) Max Response: PP wells 0%, bald PP −100%
[2] = tested on: SARS-CoV-2 spike pseudotyped particles (WA1 + D614G) entry into Calu-3 cells; type: cell-based; conditions: for AC50: read-out: SARS-CoV-2 PP (WA1 + D614G) AC50
[3] = Severe acute respiratory syndrome coronavirus 2, Calu-3 cells
[4] = Calu-3 cells, read-out: IC50 Delta pseudotyped particle entry
[5] = Severe acute respiratory syndrome coronavirus 2, Calu-3, read-out: IC50 Delta pseudotyped particle entry, Calu-3 cells
[6] = Severe acute respiratory syndrome coronavirus 2, Calu-3, variant not given, matches Delta values, read-out: IC50 blocking of entry into Calu-3 cells using pseudotyped particles with SARS-CoV-2 spike protein

Compound | Emax [1] | AC50 [1, 3] | SARS-CoV-2 PP (WA1 + D614G) Max Response [2] | AC50 [2] | other results
O=c1ccc2ccc(O)cc2o1 [7-Hydroxycoumarin] | – | – | – | – | inhibition of pseudotyped particle entry ([1]; Calu-3 cells): lack of activity; also recorded: nor any inhibition of pseudotyped particle entry
CC(C)C[C@H](NC(=O)[C@H](Cc1ccccc1)NC(=O)c1cnccn1)B(O)O [Bortezomib] | -100% | < 0.05 µM | -100% | < 0.05 µM | IC50 ([1]; Severe acute respiratory syndrome coronavirus 2, Calu-3, Calu-3 cells, apparent, due to cytotoxicity, read-out: IC50 inhibition of viral entry (variant not stated)): < 0.05 µM
CN(C)C(=O)COC(=O)Cc1ccc(OC(=O)c2ccc(NC(=N)N)cc2)cc1 [Camostat] | -92% | 0.059 µM | -95% | 0.05 µM | IC50 [1, 4]: 0.059 µM; IC50 [1, 5]: 0.0588 µM; IC50 ([2]; read-out: IC50 WA1 + D614G pseudotyped particle entry): 0.05 µM
NC[C@H]1CC[C@H](C(=O)Oc2ccc(CCC(=O)O)cc2)CC1 [Cetraxate HCl] | 30% | 23.3 µM | – | – | –
N=C(N)c1cccc(CC(NS(=O)(=O)c2cccc(-c3ccc(Cl)cc3Cl)c2)C(=O)N2CCC(CCN)CC2)c1 (centres unmarked) [Cmpd 92 (Meyer)] | 92% | 3.98 µM | -70% | 2.05 µM | IC50 [1, 6]: 4 µM
N=C(N)c1cccc(CC(NS(=O)(=O)c2cccc(-c3ccc(Cl)cc3Cl)c2)C(=O)N2CCC(NC(=O)NC3CCCCC3)CC2)c1 (centres unmarked) [Cmpd 114 (Meyer)] | 99% | 15.3 µM | -88% | 5.35 µM | IC50 [1, 6]: 15 µM
COC(=O)N[C@H](C(=O)N1CCC[C@H]1c1nc(-c2ccc(-c3ccc(-c4c[nH]c([C@@H]5CCCN5C(=O)[C@@H](NC(=O)OC)C(C)C)n4)cc3)cc2)c[nH]1)C(C)C [Daclatasvir dihydrochloride] | -100% | 32.9 µM | -100% | 39 µM | –
CCOC(=O)c1ccc(OC(=O)CCCCCNC(=N)N)cc1 [Gabexate mesilate] | – | – | – | – | inhibition of pseudotyped particle entry ([1]; Calu-3 cells): inactive
N=C(N)c1ccc2cc(OC(=O)c3ccc(N=C(N)N)cc3)ccc2c1 [Nafamostat mesilate] | -100% | 0.0014 µM | -100% | – | IC50 [1, 4]: 0.0014 µM; IC50 [1, 5]: 0.00142 µM
COC(=O)[C@H](Cc1cccc(C(=N)N)c1)[C@@H](C)NC(=O)c1ccc(-c2cc[n+]([O-])cc2)cc1 [Otamixaban] | 54% | 18 µM | -50% | 20 µM | –
N=C(N)c1ccc2nc(-c3cc(CC(=O)N[C@@H](CC(=O)O)C(=O)O)cc(-c4cc(S(N)(=O)=O)ccc4O)c3O)[nH]c2c1 [PCI-27483] | -66% | 15.8 µM | -66% | 16.5 µM | –
AGN194310 | – | – | -87% | 22 µM | AC50 ([1]; Calu-3 cells): 38.4 µM; SARS-CoV-2 PP (Delta) Max Response ([1]; Calu-3 cells): -86%
Dibromopropamidine Dihydrochloride | – | – | -44% | 19.5 µM | AC50 ([1]; Calu-3 cells): 19.2 µM; SARS-CoV-2 PP (Delta) Max Response ([1]; Calu-3 cells): -49%
G-007-LK | – | – | -73% | 0.5 µM | AC50 ([1]; Calu-3 cells): 1 µM; SARS-CoV-2 PP (Delta) Max Response ([1]; Calu-3 cells): -67%
Marizomib / Salinosporamide A | – | – | -100% | < 0.05 µM | AC50 ([1]; Calu-3 cells): < 0.05 µM; SARS-CoV-2 PP (Delta) Max Response ([1]; Calu-3 cells): -100%
